The text below walks through data of patent publication US8501770B2 (ArQule, Inc., priority 2009, dated 2013).

In this experiment the target is Full-length inactive AKT1 (Homo sapiens, UniProt P31749). Kind of experiment: Inactive Akt Alpha Screen Assay. As to conditions: values not marked with "*"; read-out: Akt1 IC50, (AlphaScreen). It is filed as biochemical. The method, then: AKT1 activity was assayed using the GSK3-derived biotinylated peptide substrate, crosstide (biotin-[…]), and AlphaScreen™ (Amplified Luminescent Proximity Homogeneous Assay) technology. AKT1 activation was achieved by the addition of the activating kinases PDK1 and MAPKAPK2, lipid vesicles, and ATP. The extent of peptide phosphorylation was determined using a phospho-AKT substrate antibody and acceptor beads conjugated to Protein A and donor beads conjugated to streptavidin that bind to the biotin on the peptide. Excitation of the donor beads converted ambient oxygen to excited singlet oxygen which, when in close proximity to acceptor beads, reacted with acceptor beads resulting in signal amplification.
Sequence of Full-length inactive AKT1 (P31749 whole entry): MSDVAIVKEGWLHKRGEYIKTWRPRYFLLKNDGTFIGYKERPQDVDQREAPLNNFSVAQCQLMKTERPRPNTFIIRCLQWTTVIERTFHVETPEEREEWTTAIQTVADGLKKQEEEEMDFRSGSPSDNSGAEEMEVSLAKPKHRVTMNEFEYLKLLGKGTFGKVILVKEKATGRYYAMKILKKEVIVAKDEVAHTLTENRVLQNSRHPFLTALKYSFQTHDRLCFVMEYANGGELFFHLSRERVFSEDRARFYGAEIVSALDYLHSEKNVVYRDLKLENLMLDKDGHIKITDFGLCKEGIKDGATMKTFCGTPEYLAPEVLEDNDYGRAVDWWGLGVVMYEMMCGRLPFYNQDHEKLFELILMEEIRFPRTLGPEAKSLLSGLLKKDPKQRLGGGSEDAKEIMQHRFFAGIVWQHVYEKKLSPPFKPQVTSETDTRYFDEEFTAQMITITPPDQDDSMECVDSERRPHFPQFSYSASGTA
Assay plates were incubated for 90 minutes at room temperature in the dark, and the plates were read on a Perkin Elmer Envision Multilabel plate reader (excitation wavelength: […], emission wavelength: 570 nm).
One may read the IC50 as the point on the concentration scale where inhibition reaches its midpoint. In the case of `Nc1ncccc1-c1nc2cc(Br)cnc2n1-c1ccc(CNS(=O)(=O)c2cccc3cccnc23)cc1` [Example 164, N-{4-[2-(2-aminopyridin-3-yl)-6-bromo-3H-imidazo[4,5-b]pyridin-3-yl]benzyl}quinoline-8-sulfonamide], the IC50 was 620 nM.

In the case of `N#Cc1ccc(S(=O)(=O)NCc2ccc(-n3c(-c4cccnc4N)nc4cc(Br)cnc43)cc2)cc1` [Example 165, N-{4-[2-(2-aminopyridin-3-yl)-6-bromo-3H-imidazo[4,5-b]pyridin-3-yl]benzyl}-4-cyanobenzenesulfonamide], the half-inhibitory concentration (IC50) was found to be 2100 nM.

With `Cn1cnc(S(=O)(=O)NCc2ccc(-n3c(-c4cccnc4N)nc4cc(Br)cnc43)cc2)c1` [Example 166, N-{4-[2-(2-aminopyridin-3-yl)-6-bromo-3H-imidazo[4,5-b]pyridin-3-yl]benzyl}-1-methyl-1H-imidazole-4-sulfonamide], the IC50 came to 440 nM.

Regarding `Cc1ccc(C)c(S(=O)(=O)NCc2ccc(-n3c(-c4cccnc4N)nc4cc(Br)cnc43)cc2)c1` [Example 167, N-{4-[2-(2-aminopyridin-3-yl)-6-bromo-3H-imidazo[4,5-b]pyridin-3-yl]benzyl}-2,5-dimethylbenzenesulfonamide], the IC50 was found to be 480 nM.

As for `Nc1ncccc1-c1nc2cc(Br)cnc2n1-c1ccc(CNS(=O)(=O)C2CC2)cc1` [Example 168, N-{4-[2-(2-aminopyridin-3-yl)-6-bromo-3H-imidazo[4,5-b]pyridin-3-yl]benzyl}cyclopropanesulfonamide], the IC50 was 170 nM.

`Nc1ncccc1-c1nc2cc(Br)cnc2n1-c1ccc(CNS(=O)(=O)c2ccsc2)cc1` [Example 169, N-{4-[2-(2-aminopyridin-3-yl)-6-bromo-3H-imidazo[4,5-b]pyridin-3-yl]benzyl}thiophene-3-sulfonamide]: the IC50 is 190 nM.

As to `CCS(=O)(=O)NCc1ccc(-n2c(-c3cccnc3N)nc3cc(Br)cnc32)cc1` [Example 170, N-{4-[2-(2-aminopyridin-3-yl)-6-bromo-3H-imidazo[4,5-b]pyridin-3-yl]benzyl}ethanesulfonamide], the IC50 amounted to 490 nM.

`Nc1ncccc1-c1nc2cc(Br)cnc2n1-c1ccc(CNS(=O)(=O)c2ccccc2F)cc1` [Example 171, N-{4-[2-(2-aminopyridin-3-yl)-6-bromo-3H-imidazo[4,5-b]pyridin-3-yl]benzyl}-2-fluorobenzenesulfonamide]: the IC50 is 350 nM.

For the molecule `CC(C)(C)c1ccc(C(=O)NCc2ccc(-n3c(-c4cccnc4N)nc4cccnc43)cc2)cc1` [Example 172, N-{4-[2-(2-aminopyridin-3-yl)-3H-imidazo[4,5-b]pyridin-3-yl]benzyl}-4-tert-butylbenzamide], the IC50 came out at 99 nM.

`Nc1ncccc1-c1nc2cc(-c3ccc(CO)cc3)cnc2n1-c1ccc(CNC(=O)c2ccccc2)cc1` [Example 173, N-(4-{2-(2-aminopyridin-3-yl)-6-[4-(hydroxymethyl)phenyl]-3H-imidazo[4,5-b]pyridin-3-yl}benzyl)benzamide]: the IC50 was 26 nM.

As for `CC(=O)Nc1cccc(-c2cnc3c(c2)nc(-c2cccnc2N)n3-c2ccc(CNC(=O)c3ccccc3)cc2)c1` [Example 174, N-(4-{6-[3-(acetylamino)phenyl]-2-(2-aminopyridin-3-yl)-3H-imidazo[4,5-b]pyridin-3-yl}benzyl)benzamide], the IC50 stood at 38 nM.

In the case of `COc1ccc(Nc2ccc3nc(-c4cccnc4N)n(-c4ccc(CNC(=O)c5ccccc5)cc4)c3n2)cc1` [Example 175], the IC50 was 600 nM.

`COc1ccc(NC(=O)NCc2ccc(-n3c(-c4cccnc4N)nc4cc(F)cnc43)cc2)cc1` [Example 176, 1-{4-[2-(2-aminopyridin-3-yl)-6-fluoro-3H-imidazo[4,5-b]pyridin-3-yl]benzyl}-3-(4-methoxyphenyl)urea]: the IC50 is 1200 nM.

Take `COc1ccc(S(=O)(=O)NCc2ccc(-n3c(-c4cccnc4N)nc4cc(Br)cnc43)cc2)cc1` [Example 177, N-{4-[2-(2-aminopyridin-3-yl)-6-bromo-3H-imidazo[4,5-b]pyridin-3-yl]benzyl}-4-methoxybenzenesulfonamide]: the IC50 was 2100 nM.

On to `Cc1ccnc(NC(=O)c2ccc(-n3c(-c4cccnc4N)nc4cccnc43)cc2)c1` [Example 179, 4-[2-(2-aminopyridin-3-yl)-3H-imidazo[4,5-b]pyridin-3-yl]-N-(4-methylpyridin-2-yl)benzamide], for which the IC50 was determined as 530 nM.

On to `Cc1ccc2cc(NC(=O)c3ccc(-n4c(-c5cccnc5N)nc5cccnc54)cc3)ccc2n1` [Example 180, 4-[2-(2-aminopyridin-3-yl)-3H-imidazo[4,5-b]pyridin-3-yl]-N-(2-methylquinolin-6-yl)benzamide], for which the IC50 is 590 nM.

With `CC(=O)Nc1ccc(NC(=O)c2ccc(-n3c(-c4cccnc4N)nc4cccnc43)cc2)cc1` [Example 181, N-[4-(acetylamino)phenyl]-4-[2-(2-aminopyridin-3-yl)-3H-imidazo[4,5-b]pyridin-3-yl]benzamide], the IC50 was 840 nM.

Regarding `Nc1ncccc1-c1nc2cccnc2n1-c1ccc(C(=O)Nc2ccc3c(c2)C(=O)OC3)cc1` [Example 182, 4-[2-(2-aminopyridin-3-yl)-3H-imidazo[4,5-b]pyridin-3-yl]-N-(3-oxo-1,3-dihydro-2-benzofuran-5-yl)benzamide], the IC50 came out at 1100 nM.

On to `N#Cc1cccc(NC(=O)c2ccc(-n3c(-c4cccnc4N)nc4cccnc43)cc2)c1` [Example 183, 4-[2-(2-aminopyridin-3-yl)-3H-imidazo[4,5-b]pyridin-3-yl]-N-(3-cyanophenyl)benzamide], for which the IC50 came to 1500 nM.

In the case of `COc1cccc(NC(=O)c2ccc(-n3c(-c4cccnc4N)nc4cccnc43)cc2)c1` [Example 184, 4-[2-(2-aminopyridin-3-yl)-3H-imidazo[4,5-b]pyridin-3-yl]-N-(3-methoxyphenyl)benzamide], the IC50 came out at 1900 nM.

Turning to `COc1ccc(NC(=O)c2ccc(-n3c(-c4cccnc4N)nc4cccnc43)cc2)cc1F` [Example 185, 4-[2-(2-aminopyridin-3-yl)-3H-imidazo[4,5-b]pyridin-3-yl]-N-(3-fluoro-4-methoxyphenyl)benzamide], the IC50 was determined as 2500 nM.

Regarding `Cc1ccc(NC(=O)c2ccc(-n3c(-c4cccnc4N)nc4cccnc43)cc2)cc1` [Example 186, 4-[2-(2-aminopyridin-3-yl)-3H-imidazo[4,5-b]pyridin-3-yl]-N-(4-methylphenyl)benzamide], the concentration for half-maximal inhibition (IC50) is 2500 nM.

For `Nc1ncccc1-c1nc2cc(C(F)(F)F)cnc2n1-c1ccc(CNC(=O)c2ccc(Br)cc2)cc1` [Example 187, N-{4-[2-(2-aminopyridin-3-yl)-6-(trifluoromethyl)-3H-imidazo[4,5-b]pyridin-3-yl]benzyl}-4-bromobenzamide], the IC50 worked out at 2100 nM.

As to `Nc1ncccc1-c1nc2cc(C(F)(F)F)cnc2n1-c1ccc(CNC(=O)c2cccc(F)c2)cc1` [Example 188, N-{4-[2-(2-aminopyridin-3-yl)-6-(trifluoromethyl)-3H-imidazo[4,5-b]pyridin-3-yl]benzyl}-3-fluorobenzamide], the IC50 was 360 nM.

With `Cc1ccnc2c1nc(-c1cccnc1N)n2-c1ccc(CNC(=O)c2cccc(F)c2)cc1` [Example 190, N-(4-(2-(2-aminopyridin-3-yl)-7-methyl-3H-imidazo[4,5-b]pyridin-3-yl)benzyl)-3-fluorobenzamide], the IC50 was determined as 110 nM.
